Patent US20220089598A1, “INHIBITORS OF HUMAN IMMUNODEFICIENCY VIRUS REPLICATION” (VIIV HEALTHCARE UK (No. 5) LIMITED, priority 2018, published 2022)

Tests used:
[1] = test system: recombinant NL4-3 virus (Renilla luciferase) in MT-2 cells; test: HIV cell culture assay (antiviral activity, luciferase readout); type: cell-based; conditions: Renilla, NL43
Experimental: HIV cell culture assay—MT-2 cells, 293T cells and the proviral DNA clone of NL4-3 virus were obtained from the NIH AIDS Research and Reference Reagent Program. MT-2 cells were propagated in RPMI 1640 media supplemented with 10% heat inactivated fetal bovine serum (FBS), 100 μg/ml penicillin G and up to 100 units/mL streptomycin. The 293T cells were propagated in DMEM media supplemented with 10% heat inactivated FBS, 100 μg/mL penicillin G and 100 μg/mL streptomycin. A recombinant NL4-3 proviral clone, in which a section of the nef gene was replaced with the Renilla luciferase gene, was used to make the reference virus used in these studies. The recombinant virus was prepared through transfection of the recombinant NL4-3 proviral clone into 293T cells using Transit-293 Transfection Reagent from Mirus Bio LLC (Madison, Wis.). Supernatent was harvested after 2-3 days and the amount of virus present was titered in MT-2 cells using luciferase enzyme activity as a marker by measuring luciferase enzyme activity. Luciferase was quantitated using the EnduRen Live Cell Substrate from Promega (Madison, Wis.). Antiviral activities of compounds toward the recombinant virus were quantified by measuring luciferase activity in MT-2 cells infected for 4-5 days with the recombinant virus in the presence of serial dilutions of the compound.
The 50% effective concentration (EC50) was calculated by using the exponential form of the median effect equation where (Fa)=1/[1+(ED50/drug conc.)m] (Johnson V A, Byington R T. Infectivity Assay. In Techniques in HIV Research. ed. Aldovini A, Walker B D. 71-76. New York: Stockton Press. 1990).

[2] = Compound cytotoxicity, XTT-based colorimetric assay; type: cell-based; conditions: human; uninfected MT2 cells, day 4, XTT assay
Experimental: Compound cytotoxicity and the corresponding CC50 values were determined using the same protocol as described in the antiviral assay except that uninfected cells were used. Cytotoxicity was assessed on day 4 in uninfected MT2 cells by using a XTT (2,3-bis[2-Methoxy-4-nitro-5-sulfophenyl]-2H-tetrazolium-5-carboxyanilide inner salt)-based colorimetric assay (Sigma-Aldrich, St Louis, Mo.).

SMILES: COc1c(F)ccc(-c2ccc3c(=O)n(-c4ccc(Cl)c5c(NS(C)(=O)=O)nn(C)c45)c([C@H](Cc4cc(F)cc(F)c4)NC(=O)Cn4nc(C(F)F)c5c4C(F)(F)[C@@H]4C[C@H]54)nc3n2)c1F (atropisomer, axis not shown; (P)) [Example 26, N—((S)-1-((3P)-3-(4-chloro-1-methyl-3-(methylsulfonamido)-1H-indazol-7-yl)-7-(2,4-difluoro-3-methoxyphenyl)-4-oxo-3,4-dihydropyrido[2,3-d]pyrimidin-2-yl)-2-(3,5-difluorophenyl)ethyl)-2-((3bS,4aR)-3-(difluoromethyl)-5,5-difluoro-3b,4,4a,5-tetrahydro-1H-cyclopropa[3,4]cyclopenta[1,2-c]pyrazol-1-yl)acetamide]
- EC50 [1]: 0.062 nM
- CC50 at 4 day [2]: > 100 nM

SMILES: Cn1nc(NS(C)(=O)=O)c2c(Cl)ccc(-n3c([C@H](Cc4cc(F)cc(F)c4)NC(=O)Cn4nc(C(F)F)c5c4C(F)(F)[C@@H]4C[C@H]54)nc4nc(-c5cc(F)c(F)c(F)c5)ccc4c3=O)c21 (atropisomer, axis not shown; (P)) [Example 12, N—((S)-1-((3P)-3-(4-chloro-1-methyl-3-(methylsulfonamido)-1H-indazol-7-yl)-4-oxo-7-(3,4,5-trifluorophenyl)-3,4-dihydropyrido[2,3-d]pyrimidin-2-yl)-2-(3,5-difluorophenyl)ethyl)-2-((3bS,4aR)-3-(difluoromethyl)-5,5-difluoro-3b,4,4a,5-tetrahydro-1H-cyclopropa[3,4]cyclopenta[1,2-c]pyrazol-1-yl)acetamide]
- EC50 [1]: 0.21 nM
- CC50 at 4 day [2]: > 100 nM

SMILES: Cn1nc(NS(C)(=O)=O)c2c(Cl)ccc(-n3c([C@H](Cc4cc(F)cc(F)c4)NC(=O)Cn4nc(C(F)F)c5c4C(F)(F)[C@@H]4C[C@H]54)nc4nc(-c5ccc(F)cc5S(C)(=O)=O)ccc4c3=O)c21 (atropisomer, axis not shown; (P)) [Example 19, N—((S)-1-((3P)-3-(4-chloro-1-methyl-3-(methylsulfonamido)-1H-indazol-7-yl)-7-(4-fluoro-2-(methylsulfonyl)phenyl)-4-oxo-3,4-dihydropyrido[2,3-d]pyrimidin-2-yl)-2-(3,5-difluorophenyl)ethyl)-2-((3bS,4aR)-3-(difluoromethyl)-5,5-difluoro-3b,4,4a,5-tetrahydro-1H-cyclopropa[3,4]cyclopenta[1,2-c]pyrazol-1-yl)acetamide]
- EC50 [1]: 0.12 nM
- CC50 at 4 day [2]: > 500 nM

SMILES: Cn1nc(NS(C)(=O)=O)c2c(Cl)ccc(-n3c([C@H](Cc4cc(F)cc(F)c4)NC(=O)Cn4nc(C(F)F)c5c4C(F)(F)[C@@H]4C[C@H]54)nc4nc(-c5ccc(Cl)cc5Cl)ccc4c3=O)c21 (atropisomer, axis not shown; (P)) [Example 25, N—((S)-1-((3P)-3-(4-chloro-1-methyl-3-(methylsulfonamido)-1H-indazol-7-yl)-7-(2,4-dichlorophenyl)-4-oxo-3,4-dihydropyrido[2,3-d]pyrimidin-2-yl)-2-(3,5-difluorophenyl)ethyl)-2-((3bS,4aR)-3-(difluoromethyl)-5,5-difluoro-3b,4,4a,5-tetrahydro-1H-cyclopropa[3,4]cyclopenta[1,2-c]pyrazol-1-yl)acetamide]
- EC50 [1]: 0.42 nM
- CC50 at 4 day [2]: > 100 nM

SMILES: Cn1nc(NS(C)(=O)=O)c2c(Cl)ccc(-n3c([C@H](Cc4cc(F)cc(F)c4)NC(=O)Cn4nc(C(F)(F)F)c5c4C(F)(F)[C@@H]4C[C@H]54)nc4nc(-c5ccc(F)cc5F)ccc4c3=O)c21 (atropisomer, axis not shown; (P)) [Example 24, N—((S)-1-((3P)-3-(4-chloro-1-methyl-3-(methylsulfonamido)-1H-indazol-7-yl)-7-(2,4-difluorophenyl)-4-oxo-3,4-dihydropyrido[2,3-d]pyrimidin-2-yl)-2-(3,5-difluorophenyl)ethyl)-2-((3bS,4aR)-5,5-difluoro-3-(trifluoromethyl)-3b,4,4a,5-tetrahydro-1H-cyclopropa[3,4]cyclopenta[1,2-c]pyrazol-1-yl)acetamide]
- EC50 [1]: 0.067 nM
- CC50 at 4 day [2]: > 500 nM

SMILES: CS(=O)(=O)Nc1nn(CC(F)(F)F)c2c(-n3c([C@H](Cc4cc(F)cc(F)c4)NC(=O)Cn4nc(C(F)(F)F)c5c4C(F)(F)[C@@H]4C[C@H]54)nc4nc(-c5ccccc5F)ccc4c3=O)ccc(Cl)c12 (atropisomer, axis not shown; (P)) [Example 11, N—((S)-1-((3P)-3-(4-chloro-3-(methylsulfonamido)-1-(2,2,2-trifluoroethyl)-1H-indazol-7-yl)-7-(2-fluorophenyl)-4-oxo-3,4-dihydropyrido[2,3-d]pyrimidin-2-yl)-2-(3,5-difluorophenyl)ethyl)-2-((3bS,4aR)-5,5-difluoro-3-(trifluoromethyl)-3b,4,4a,5-tetrahydro-1H-cyclopropa[3,4]cyclopenta[1,2-c]pyrazol-1-yl)acetamide]
- EC50 [1]: 0.15 nM
- CC50 at 4 day [2]: > 100 nM

SMILES: Cn1nc(NS(C)(=O)=O)c2c(Cl)ccc(-n3c([C@H](Cc4cc(F)cc(F)c4)NC(=O)Cn4nc(C(F)F)c5c4C(F)(F)[C@@H]4C[C@H]54)nc4nc(-c5ccc(F)cc5F)ccc4c3=O)c21 (atropisomer, axis not shown; (P)) [Example 39, N—((S)-1-((3P)-3-(4-chloro-1-methyl-3-(methylsulfonamido)-1H-indazol-7-yl)-7-(2,4-difluorophenyl)-4-oxo-3,4-dihydropyrido[2,3-d]pyrimidin-2-yl)-2-(3,5-difluorophenyl)ethyl)-2-((3bS,4aR)-3-(difluoromethyl)-5,5-difluoro-3b,4,4a,5-tetrahydro-1H-cyclopropa[3,4]cyclopenta[1,2-c]pyrazol-1-yl)acetamide]
- EC50 [1]: 0.047 nM
- CC50 at 4 day [2]: > 500 nM

SMILES: Cn1nc(NS(C)(=O)=O)c2c(Cl)ccc(-n3c([C@H](Cc4cc(F)cc(F)c4)NC(=O)Cn4nc(C(F)F)c5c4C(F)(F)[C@@H]4C[C@H]54)nc4cc(-c5ccccc5F)cnc4c3=O)c21 (atropisomer, axis not shown; (P)) [Example 38, N—((S)-1-((3P)-3-(4-chloro-1-methyl-3-(methylsulfonamido)-1H-indazol-7-yl)-7-(2-fluorophenyl)-4-oxo-3,4-dihydropyrido[3,2-d]pyrimidin-2-yl)-2-(3,5-difluorophenyl)ethyl)-2-((3bS,4aR)-3-(difluoromethyl)-5,5-difluoro-3b,4,4a,5-tetrahydro-1H-cyclopropa[3,4]cyclopenta[1,2-c]pyrazol-1-yl)acetamide]
- EC50 [1]: 1.9 nM
- CC50 at 4 day [2]: > 500 nM

SMILES: Cn1nc(NS(C)(=O)=O)c2c(Cl)ccc(-n3c([C@H](Cc4cc(F)cc(F)c4)NC(=O)Cn4nc(C(F)F)c5c4C(F)(F)[C@@H]4C[C@H]54)nc4nc(-c5ccc(F)c(C#N)c5)ccc4c3=O)c21 (atropisomer, axis not shown; (P)) [Example 30, N—((S)-1-((3P)-3-(4-chloro-1-methyl-3-(methylsulfonamido)-1H-indazol-7-yl)-7-(3-cyano-4-fluorophenyl)-4-oxo-3,4-dihydropyrido[2,3-d]pyrimidin-2-yl)-2-(3,5-difluorophenyl)ethyl)-2-((3bS,4aR)-3-(difluoromethyl)-5,5-difluoro-3b,4,4a,5-tetrahydro-1H-cyclopropa[3,4]cyclopenta[1,2-c]pyrazol-1-yl)acetamide]
- EC50 [1]: 0.078 nM
- CC50 at 4 day [2]: > 100 nM

SMILES: Cn1nc(NS(C)(=O)=O)c2c(Cl)ccc(-n3c([C@H](Cc4cc(F)cc(F)c4)NC(=O)Cn4nc(C(F)F)c5c4C(F)(F)[C@@H]4C[C@H]54)nc4nc(-c5cccc(F)c5F)ccc4c3=O)c21 (atropisomer, axis not shown; (P)) [Example 4, N—((S)-1-((3P)-3-(4-chloro-1-methyl-3-(methylsulfonamido)-1H-indazol-7-yl)-7-(2,3-difluorophenyl)-4-oxo-3,4-dihydropyrido[2,3-d]pyrimidin-2-yl)-2-(3,5-difluorophenyl)ethyl)-2-((3bS,4aR)-3-(difluoromethyl)-5,5-difluoro-3b,4,4a,5-tetrahydro-1H-cyclopropa[3,4]cyclopenta[1,2-c]pyrazol-1-yl)acetamide]
- EC50 [1]: 0.092 nM
- CC50 at 4 day [2]: > 100 nM

SMILES: Cn1nc(NS(C)(=O)=O)c2c(Cl)ccc(-n3c([C@H](Cc4cc(F)cc(F)c4)NC(=O)Cn4nc(C(F)F)c5c4C(F)(F)[C@@H]4C[C@H]54)nc4nc(-c5ccc(F)c(Cl)c5)ccc4c3=O)c21 (atropisomer, axis not shown; (P)) [Example 29, N—((S)-1-((3P)-3-(4-chloro-1-methyl-3-(methylsulfonamido)-1H-indazol-7-yl)-7-(3-chloro-4-fluorophenyl)-4-oxo-3,4-dihydropyrido[2,3-d]pyrimidin-2-yl)-2-(3,5-difluorophenyl)ethyl)-2-((3bS,4aR)-3-(difluoromethyl)-5,5-difluoro-3b,4,4a,5-tetrahydro-1H-cyclopropa[3,4]cyclopenta[1,2-c]pyrazol-1-yl)acetamide]
- EC50 [1]: 0.12 nM
- CC50 at 4 day [2]: > 100 nM
